Experimental data reported in patent publication US20240294519A1, “PYRROLO[2,3-b]PYRIDINE PGDH INHIBITORS AND METHODS OF MAKING AND USING” (EPIRIUM BIO INC., priority 2021, published 2024).
“And” between values parts separate entries of the source, which are not always exact repeats. Equal values may be shown once.

Tests used:
15-PGDH/HPGD = molecular target: T1, 15-PGDH/HPGD (Homo sapiens, UniProt P15428); assay: hPGDH inhibitor screening biochemical assay; details: 10 nM enzyme, 15 μM PGE2, 0.25 mM NAD, fluorescence ex/em 340/485 nm
T1 construct: purchased R&D System 5660-DH
T1 sequence (P15428 1-266): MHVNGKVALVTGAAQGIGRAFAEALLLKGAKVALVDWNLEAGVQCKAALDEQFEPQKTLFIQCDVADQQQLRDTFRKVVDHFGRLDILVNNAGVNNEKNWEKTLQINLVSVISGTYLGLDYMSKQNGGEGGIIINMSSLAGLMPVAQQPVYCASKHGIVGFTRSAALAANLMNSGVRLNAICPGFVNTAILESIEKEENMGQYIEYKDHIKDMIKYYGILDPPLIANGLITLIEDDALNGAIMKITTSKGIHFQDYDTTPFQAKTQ
Summary of the method: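 Recombinant human 15-PGDH (10 nM) was preincubated with compound for 10 min at 37° C in 50 mM Tris-HCl pH 7.5 with 0.01% Tween 20. Reaction with 15 μM PGE2 and 0.25 mM NAD+ ran 10 min at room temperature, read by fluorescence at ex/em 340/485 nm. IC50 was derived from 10-point curves, relative to 1% DMSO.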

15-PGDH = molecular target: T2, 15-PGDH (Homo sapiens, UniProt P15428); assay: A549 cell based assay: PGE2 in supernatant after IL-1β (HTRF); details: A549 cells, fold induction of PGE2, IL-1β plus test article versus IL-1β only
T2 construct: 15-PGDH is highly expressed in resting human lung adenocarcinoma cells (A549); endogenous in cells; host or cells: A549
T2 sequence (P15428 1-266): T1 sequence (P15428 1-266)
Procedure: Cell Based Assay: 15-PGDH is highly expressed in resting human lung adenocarcinoma cells (A549) (Tong et al., 2006), and this cell line was used to assess 15-PGDH inhibition by MF-300Na in vitro.
In this assay, A549 cells are treated with interleukin (IL) 1β, which induces the expression of cycloxygenase-2 and the synthesis of PGE2 (Tong et al., 2006). In the studies evaluating test articles, thirty thousand A549 cells were seeded in 100 μL F12K completed media and incubated for 24 hours at 37° C. with 5% CO2 before being serum-starved for 24 hours. On the day of the experiment, buffer was changed to complete medium, and cells were incubated for 30 minutes with compounds prior to the addition of IL-1β (final concentration of 0.1-0.25 ng/mL) overnight at 37° C. with 5% CO2. Each concentration was run in triplicate. […] The PGE2 in the supernatant was detected and quantified using a Cisbio HTRF technology (Homogeneous Time-Resolved Fluorescence) kit (62P2APEG-62P2APEH) according to the manufacturer's recommendations, quantifying the fold induction of PGE2 of cells treated with IL-1β plus test article, versus treatment with IL-1β only.

SMILES | IC50 (15-PGDH/HPGD) [nM] | PGE2 - HTRF over IL-β induction at 0.001 μM (15-PGDH) | PGE2 - HTRF over IL-β induction at 0.01 μM (15-PGDH) | PGE2 - HTRF over IL-β induction at 0.1 μM (15-PGDH) | PGE2 - HTRF over IL-β induction at 1 μM (15-PGDH)
CCC1CCCN(C(=O)c2cnc3c(ccn3-c3cncc(NC(=O)OC)c3)c2)C1 (stereo in doubt) [Compound B-70, methyl(S)-(5-(5-(3-ethylpiperidine-1-carbonyl)-1H-pyrrolo[2,3-b]pyridin-1-yl)pyridin-3-yl)carbamate] | < 100 | 3.59 | 4.44 | 4.8 | 4.34
O=C(c1cnc2c(ccn2-c2cccc(-c3nc[nH]n3)c2)c1)N1CCC(F)(F)CC1 [Compound B-36, (1-(3-(4H-1,2,4-triazol-3-yl)phenyl)-1H-pyrrolo[2,3-b]pyridin-5-yl)(4,4-difluoropiperidin-1-yl)methanone] | < 100 | 2.93 | 4.16 | 3.31 | 4.33
O=C(c1cnc2c(ccn2-c2ccc(-c3nnc(C4CC4)[nH]3)cc2)c1)N1CCC(F)(F)CC1 [Compound B-72] | < 100 | 2.17 | 3.03 | 3.96 | 3.96
O=C(c1cnc2c(ccn2-c2ccc(N3CCOC3=O)nc2)c1)N1CCC[C@H](C(F)(F)F)C1 [Compound B-80] | < 100 | 2.36 | 2.83 | 2.86 | 2.4
O=C(c1cnc2c(ccn2-c2ccc(N3CCOC3=O)nc2)c1)N1CCC[C@@H](C(F)(F)F)C1 [Compound B-81] | 100 to 1000 | 0.51 | 1.08 | 2.21 | 1.92
COC(=O)Nc1cncc(-n2ccc3cc(C(=O)N4CCCC(F)(F)C4)cnc32)c1 [Compound B-82] | < 100 | 2.7 | 5.52 | 5.36 | 4.19
CCC1CCCN(C(=O)c2cnc3c(ccn3-c3cncc(NC(=O)OC)c3)c2)C1 (stereo not shown) [Compound B-83] | < 100 | 1.4 | 2.64 | 2.84 | 4.39
COC(=O)Nc1cncc(-n2ccc3cc(C(=O)N4CCCC(C(F)(F)F)C4)cnc32)c1 (stereo not shown) [Compound B-84] | < 100 | 1.94 | 3.38 | 4.02 | 5.76
CC(C)OC(=O)Nc1cncc(-n2ccc3cc(C(=O)N4CCC(F)(F)CC4)cnc32)c1 [Compound B-88] | < 100 | 2.14 | 3.77 | 3.25 | 4.67
CNc1nc2ccc(-n3ccc4cc(C(=O)N5CCC(F)(F)CC5)cnc43)cn2n1 [Compound B-89] | < 100 | 1.57 | 3.31 | 3 | 5.13
Cn1cc(C(=O)Nc2cncc(-n3ccc4cc(C(=O)N5CCC(F)(F)CC5)cnc43)c2)cn1 [Compound B-92] | < 100 | – | 2.91 and 2.33 | 4.01 and 3.89 | 3.56 and 3.92
CCOC(=O)Nc1cc(-n2ccc3cc(C(=O)N4CCC(F)(F)CC4)cnc32)cnc1C [Compound B-96] | < 100 | 0.77 | 1.54 | 3.22 | 5.19
CN(C)c1nc2ccc(-n3ccc4cc(C(=O)N5CCC(F)(F)CC5)cnc43)cn2n1 [Compound B-102] | 100 to 1000 | 0.95 | 1.08 | 3.09 | 5.02
CCC1CCCN(C(=O)c2cnc3c(ccn3-c3ccc(N4CCOC4=O)nc3)c2)C1 (stereo not shown) [Compound B-113] | < 100 | 6.05 | 3.06 | 8.74 | 10.7
O=C(c1cnc2c(ccn2-c2ccc(N3CCOC3=O)nc2)c1)N1CCCC(C(F)(F)F)C1 (stereo not shown) [Compound B-114] | < 100 | 2.23 | 5.78 | 7.25 | 11.1
O=C(c1cnc2c(ccn2-c2ccc(-c3nc[nH]n3)s2)c1)N1CCC(F)(F)CC1 [Compound B-119] | – | 1.01 | 1.2 | 2.87 | 3.06
Cc1nc2ccc(-n3ccc4cc(C(=O)N5CCC(F)(F)CC5)cnc43)cn2n1 [Compound B-120] | – | 1.34 | 1.28 | 4.15 | 6.26
O=C(Nc1cncc(-n2ccc3cc(C(=O)N4CCC(F)(F)CC4)cnc32)c1)C1CCOCC1 [Compound B-232] | < 100 | 0.34 | 1.02 | 2.68 | 4.46
O=C(Nc1cncc(-n2ccc3cc(C(=O)N4CCC(F)(F)CC4)cnc32)c1)C1CCCC1 [Compound B-234] | < 100 | 0.70 | 4.01 | 4.06 | 3.42
O=C(Nc1cncc(-n2ccc3cc(C(=O)N4CCC(F)(F)CC4)cnc32)c1)C1CCC1 [Compound B-236] | < 100 | 1.63 | 3.57 | 6.46 | 8.32
